Experimental findings from US20190225650A1, “PEPTIDOMIMETIC MACROCYCLES AND USE THEREOF IN REGULATING HIF1ALPHA” (AILERON THERAPEUTICS, INC., priority 2013, published 2019) are described below.

For this experiment, the target named is T1, flag-tagged HIF1α (AA 786-826) / His6-tagged p300 (AA 323-423) complex (Homo sapiens, UniProt Q09472).
T1 construct: His6-tagged p300 (AA 323-423); made in house; host or cells: E. coli (pETDuet vector)
The experiment in a line: HIF1α p300 displacement assay (TR FRET, +CHAPS). In kind it is binding. Conditions: read-out: IC50 (nM) (HIF1α_p300 Displacement + CHAPS). The protocol: The ability of peptides to displace HIF1α c-terminal trans-activation domain from p300-CH was measured by a TR FRET assay. A complex of flag-tagged HIF1α (AA 786-826) and His6-tagged p300 (AA 323-423) was co-expressed using pETDuet vector (EMDMillipore, Bellrica Mass.) and purified from E. coli in the presence of 0.1 mM ZnSO4. The complex was diluted to 300 nM final in complete assay media and competitor peptides were added. The complete assay media contained 150 mM NaCl (Sigma +S5150 or equivalent), 20 mM HEPES pH 7.4 (Boston Bioproducts, Ashland, Mass.; #BB-2076), 7.5 mM CHAPS (Thermo #28300 or equivalent), and 1 mM DTT. Protein and peptide were incubated at room temperature for 1 hour before the addition of anti-Flag-K and anti-6×HIS-D2 (CisBio, Bedford Mass.) HTRF reconstitution buffer (50 mM Phosphate pH 7, 0.8 Potassium Flouride, BSA 0.2%)^1 to a final concentration of 0.5 μM and 4 nM respectively. […] The reaction was read on a TECAN F500 plate reader with settings recommended by CisBio. The ratio of donor to acceptor fluorescence was calculated. The resulting data was analyzed with Graphpad Prism 5.0. IC50 values were calculated for both proteins using the One Site Fit-LogIC50 equation and presented in the column “IC50 (nM) (HIF1α_p300 Displacement+CHAPS)” of Table 6. ^1 Cisbio USA, Bedford, Mass.; 61HISDLB (lot 007A), 61FG2KLB (024A), HTRF Buffer (62RB3RDF)

Bridge positions count the residues as written; N and C are the ends. Square brackets hold non-standard residues; d marks the D form. Peptide text beside a SMILES is read from it. S5 = C=CCCC[C@](C)(N)C(=O)O; Nle = CCCC[C@H](N)C(=O)O

Broadly, the IC50 is the concentration at which inhibition is half-maximal. On to `CCCC[C@H](NC(=O)[C@H](C)NC(=O)[C@@H](NC(=O)[C@@H](NC(=O)[C@H](CC(C)C)NC(=O)[C@]1(C)CCCC=CCCC[C@](C)(NC(=O)[C@H](CCC(=O)O)NC(=O)[C@H](CC(=O)O)NC(=O)[C@@H](NC(=O)[C@H](Cc2ccccc2)NC(C)=O)[C@@H](C)CC)C(=O)N[C@@H](C(C)C)C(=O)N[C@@H](CC(C)C)C(=O)N[C@@H](CCCC)C(=O)N1)C(C)C)[C@@H](C)CC)C(=O)N[C@@H](C)C(=O)N[C@@H](CC(C)C)C(=O)N[C@@H](CO)C(=O)N[C@@H](CO)C(=O)N[C@H](C(N)=O)[C@@H](C)CC` [SP-129] (Ac-FIDE[S5]VL[Nle][S5]LVIA[Nle]ALSSI-NH2; staple 5-9), for which the half-maximal inhibitory concentration (IC50) is greater than 700 nM.
